Measured values published in PubChem BioAssay (NCI).
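96-well plates; 48 h exposure; 5 concentrations. Endpoints by linear interpolation between flanking doses. Not reached: highest tested concentration assigned. TGI marks complete inhibition of growth.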

Tests used:
Experiment in all cases: NCI anticancer screen, dose series, 48 h
NCI/ADR-RES ovarian = system: NCI/ADR-RES ovarian
HS 578T breast = system: HS 578T breast
SF-295 CNS = system: SF-295 CNS
OVCAR-4 ovarian = system: OVCAR-4 ovarian
SK-OV-3 ovarian = system: SK-OV-3 ovarian
MOLT-4 leukemia = system: MOLT-4 leukemia
IGROV1 ovarian = system: IGROV1 ovarian
SNB-19 CNS = system: SNB-19 CNS
UO-31 renal = system: UO-31 renal
NCI-H23 lung = system: NCI-H23 lung
SR leukemia = system: SR leukemia
K-562 leukemia = system: K-562 leukemia
MDA-N = system: MDA-N
SK-MEL-5 melanoma = system: SK-MEL-5 melanoma
NCI-H226 lung = system: NCI-H226 lung
MALME-3M melanoma = system: MALME-3M melanoma
COLO 205 colon = system: COLO 205 colon
RXF 393 renal = system: RXF 393 renal
KM12 colon = system: KM12 colon
HCT-15 colon = system: HCT-15 colon
NCI-H460 lung = system: NCI-H460 lung
PC-3 prostate = system: PC-3 prostate
SW-620 colon = system: SW-620 colon
MDA-MB-231 breast = system: MDA-MB-231 breast
HCC-2998 colon = system: HCC-2998 colon
SN12C renal = system: SN12C renal
OVCAR-5 ovarian = system: OVCAR-5 ovarian
HOP-92 NSCLC = system: HOP-92 NSCLC
OVCAR-3 ovarian = system: OVCAR-3 ovarian
LOX IMVI melanoma = system: LOX IMVI melanoma
TK-10 renal = system: TK-10 renal
BT-549 breast = system: BT-549 breast
A549 NSCLC = system: A549 NSCLC
UACC-257 melanoma = system: UACC-257 melanoma
RPMI-8226 leukemia = system: RPMI-8226 leukemia
M14 melanoma = system: M14 melanoma
HCT-116 colon = system: HCT-116 colon
MDA-MB-435 = system: MDA-MB-435
A498 renal = system: A498 renal
HT29 colon = system: HT29 colon
SF-268 CNS = system: SF-268 CNS
HL-60(TB) leukemia = system: HL-60(TB) leukemia
T-47D breast = system: T-47D breast
EKVX NSCLC = system: EKVX NSCLC
OVCAR-8 ovarian = system: OVCAR-8 ovarian
CCRF-CEM leukemia = system: CCRF-CEM leukemia
ACHN renal = system: ACHN renal
SK-MEL-2 melanoma = system: SK-MEL-2 melanoma
SF-539 CNS = system: SF-539 CNS
CAKI-1 renal = system: CAKI-1 renal
UACC-62 melanoma = system: UACC-62 melanoma
SK-MEL-28 melanoma = system: SK-MEL-28 melanoma
U251 CNS = system: U251 CNS
DU-145 prostate = system: DU-145 prostate
786-0 renal = system: 786-0 renal
HOP-62 NSCLC = system: HOP-62 NSCLC
SNB-75 CNS = system: SNB-75 CNS
MCF7 breast = system: MCF7 breast
NCI-H522 lung = system: NCI-H522 lung

SMILES: CC(=O)c1c(SCCN2CCCC2)n(-c2ccccc2)c(=S)n(-c2ccccc2)c1=O
- TGI (NCI/ADR-RES ovarian): > 85.2 µM
- TGI (HS 578T breast): 54.2 µM
- TGI (SF-295 CNS): > 100 µM
- TGI (OVCAR-4 ovarian): > 90.7 µM
- TGI (SK-OV-3 ovarian): > 100 µM
- TGI (MOLT-4 leukemia): > 23.4 µM
- TGI (IGROV1 ovarian): 19.4 µM
- TGI (SNB-19 CNS): > 77.1 µM
- TGI (UO-31 renal): 2.73 µM
- TGI (NCI-H23 lung): 37.4 µM
- TGI (SR leukemia): > 100 µM
- TGI (K-562 leukemia): > 26.7 µM
- TGI (MDA-N): 19.9 µM
- TGI (SK-MEL-5 melanoma): 20.8 µM
- TGI (NCI-H226 lung): 54.1 µM
- TGI (MALME-3M melanoma): 12.2 µM
- TGI (COLO 205 colon): 3.48 µM
- TGI (RXF 393 renal): 5.63 µM
- TGI (KM12 colon): > 55.7 µM
- TGI (HCT-15 colon): 27.5 µM
- TGI (NCI-H460 lung): > 46.6 µM
- TGI (PC-3 prostate): 10.8 µM
- TGI (SW-620 colon): 6.76 µM
- TGI (MDA-MB-231 breast): 23.4 µM
- TGI (HCC-2998 colon): 11.9 µM
- TGI (SN12C renal): 20.5 µM
- TGI (OVCAR-5 ovarian): > 100 µM
- TGI (HOP-92 NSCLC): 18.2 µM
- TGI (OVCAR-3 ovarian): 7.22 µM
- TGI (LOX IMVI melanoma): 9.04 µM
- TGI (TK-10 renal): 8.5 µM
- TGI (BT-549 breast): 28.6 µM
- TGI (A549 NSCLC): 15.1 µM
- TGI (UACC-257 melanoma): 9.17 µM
- TGI (RPMI-8226 leukemia): 4.61 µM
- TGI (M14 melanoma): 6.63 µM
- TGI (HCT-116 colon): 18.6 µM
- TGI (MDA-MB-435): 13.2 µM
- TGI (A498 renal): 27.7 µM
- TGI (HT29 colon): 20.7 µM
- TGI (SF-268 CNS): 33.2 µM
- TGI (HL-60(TB) leukemia): 6.93 µM
- TGI (T-47D breast): 5.42 µM
- TGI (EKVX NSCLC): 37.3 µM
- TGI (OVCAR-8 ovarian): 23.5 µM
- TGI (CCRF-CEM leukemia): 4.01 µM
- TGI (ACHN renal): 3.46 µM
- TGI (SK-MEL-2 melanoma): 50.8 µM
- TGI (SF-539 CNS): 12.5 µM
- TGI (CAKI-1 renal): 10.2 µM
- TGI (UACC-62 melanoma): 20 µM
- TGI (SK-MEL-28 melanoma): 14.2 µM
- TGI (U251 CNS): 47.9 µM
- TGI (DU-145 prostate): 8.85 µM
- TGI (786-0 renal): 3.12 µM
- TGI (HOP-62 NSCLC): 55 µM
- TGI (SNB-75 CNS): 31.8 µM
- TGI (MCF7 breast): 3.01 µM
- TGI (NCI-H522 lung): 8.31 µM

SMILES: Cc1nc(-c2ccccc2)c(Cc2ccccc2O)c(=O)[nH]1
- TGI (NCI/ADR-RES ovarian): > 100 µM
- TGI (HS 578T breast): > 100 µM
- TGI (SF-295 CNS): > 100 µM
- TGI (OVCAR-4 ovarian): > 100 µM
- TGI (SK-OV-3 ovarian): > 100 µM
- TGI (MOLT-4 leukemia): > 100 µM
- TGI (IGROV1 ovarian): > 100 µM
- TGI (SNB-19 CNS): > 100 µM
- TGI (UO-31 renal): > 100 µM
- TGI (NCI-H23 lung): > 100 µM
- TGI (SR leukemia): > 100 µM
- TGI (K-562 leukemia): > 100 µM
- TGI (MDA-N): > 100 µM
- TGI (SK-MEL-5 melanoma): > 100 µM
- TGI (NCI-H226 lung): > 100 µM
- TGI (MALME-3M melanoma): > 100 µM
- TGI (COLO 205 colon): > 100 µM
- TGI (RXF 393 renal): > 100 µM
- TGI (KM12 colon): > 100 µM
- TGI (HCT-15 colon): > 100 µM
- TGI (NCI-H460 lung): > 100 µM
- TGI (PC-3 prostate): > 100 µM
- TGI (SW-620 colon): > 100 µM
- TGI (MDA-MB-231 breast): > 100 µM
- TGI (SN12C renal): > 100 µM
- TGI (OVCAR-5 ovarian): > 100 µM
- TGI (HOP-92 NSCLC): > 100 µM
- TGI (OVCAR-3 ovarian): > 100 µM
- TGI (LOX IMVI melanoma): > 100 µM
- TGI (TK-10 renal): > 100 µM
- TGI (BT-549 breast): > 100 µM
- TGI (A549 NSCLC): > 100 µM
- TGI (UACC-257 melanoma): > 100 µM
- TGI (RPMI-8226 leukemia): > 100 µM
- TGI (M14 melanoma): > 100 µM
- TGI (HCT-116 colon): > 100 µM
- TGI (MDA-MB-435): > 100 µM
- TGI (A498 renal): > 100 µM
- TGI (HT29 colon): > 100 µM
- TGI (SF-268 CNS): > 100 µM
- TGI (HL-60(TB) leukemia): > 100 µM
- TGI (T-47D breast): > 100 µM
- TGI (EKVX NSCLC): > 100 µM
- TGI (OVCAR-8 ovarian): > 100 µM
- TGI (CCRF-CEM leukemia): > 100 µM
- TGI (ACHN renal): > 100 µM
- TGI (SK-MEL-2 melanoma): > 100 µM
- TGI (SF-539 CNS): > 100 µM
- TGI (CAKI-1 renal): > 100 µM
- TGI (UACC-62 melanoma): > 100 µM
- TGI (SK-MEL-28 melanoma): > 100 µM
- TGI (U251 CNS): > 100 µM
- TGI (DU-145 prostate): > 100 µM
- TGI (786-0 renal): > 100 µM
- TGI (HOP-62 NSCLC): > 100 µM
- TGI (SNB-75 CNS): 97.9 µM
- TGI (MCF7 breast): > 100 µM
- TGI (NCI-H522 lung): > 100 µM
